Tested on: participants with SSc-RP
Test: Scleroderma Health Assessment Questionnaire (SHAQ): disability indices and visual analog scales
Assay type: in vivo, human
Text: The standard, validated, patient reported outcome measures tool for SSc patients, the Scleroderma Health Assessment Questionnaire (SHAQ), will be used to assess the participant qualify of life. Details are attached in the Appendix. The participant quality of life will be scored, and a disability index calculated for each questionnaire completed by the patient at Screening and each in-clinic visit. The absolute change in participant quality of life from baseline to the end of each dosing period will be calculated similar to frequency data as before.
The SHAQ includes a Raynaud's VAS, which will be reported at screening and each in-clinic visit. The absolute change in Raynaud-VAS, assessed by the participants response to the SHAQ question ‘In the past 7 days, how much have your Raynaud's interfered with your daily activities?’ at baseline and the end of each dosing period will be calculated similar to frequency data as before.
The SHAQ is used to calculate a Disability Index to assess the participant qualify of life. The eight categories assessed by the Disability Index are 1) dressing and grooming, 2) arising, 3) eating, 4) walking, 5) hygiene, 6) reach, 7) grip, and 8) common daily activities. For each of these categories, patients report the amount of difficulty they have in performing two or three specific activities.
There are four possible responses for the Disability Index questions: • Without any difficulty=0 • With some difficulty=1 • With much difficulty=2 • Unable to do=3. • The highest score reported by the patient for any component question of the eight categories determines the score for that category. • If a component question is left blank or the response is too ambiguous to assign a score, then the score for that category is determined by the remaining completed question(s). • If all component questions are blank or if more than one answer is given, then follow up with the respondent is required. • If the respondent's mark is between the response columns, then move it to the closest one. If it's directly between the two, move it to the higher one.
Each of the disability items on the SHAQ has a companion aids/devices variable that is used to record what type(s) of assistance, if any, the participant uses for his/her usual activities. These variables (see below) are coded as follows: • 0=No assistance is needed. • 1=A special device is used by the patient in his/her usual activities. • 2=The patient usually needs help from another person. • 3=The patient usually needs BOTH a special device AND help from another person.
The scoring variables and scoring rules permit the computation of two disability indices, the Standard Disability Index and the Alternative Disability Index.
This question results in a new set of category scores that are computed by adjusting the score for each category, if necessary, based on the patient's use of an aid or device or assistance for that category. If either devices and/or help from another person are checked for a category, the score is set to “2”, unless the score is already “3” (i.e., scores of “0” or “1” are increased to “2”). For example, if the highest score for the dressing category is “1”, and the patient says they use a device for dressing, the computed category score would be “2”. The sum of the computed categories scores is then calculated and divided by the number of categories answered. This gives a score in the 0 to 3 range.
The aid and device variables are not used to calculate the alternative disability index; it is calculated by adding the scores for each of the categories and dividing by the number of categories answered. This gives a score in the 0 to 3 range.
The standard, validated, patient reported outcome measures tool for SSc patients, the SHAQ, was collected at the time points specified in the study schedules (FIG. 2 and FIGS. 4A and 4B) to assess the participant's quality of life. The SHAQ included a Raynaud's VAS that will also be reported separately.

[1] = Cilnidipine 20 mg (N = 3), patients with diagnosis of SSc, sensitivity analysis, Modified ITT, Part A
[2] = Cilnidipine 20 mg (n = 3), Table R
[3] = Cilnidipine 20 mg (n = 3), mITT population
[4] = Cilnidipine 20 mg, Day 12, PP Population Part A, SSc patients
[5] = Cilnidipine 20 mg, Day 12, PP Population, Part A
[6] = Cilnidipine 20 mg, PP Population Part A, SSc patients

COCCOC(=O)C1=C(C)NC(C)=C(C(=O)OC/C=C/c2ccccc2)C1c1cccc([N+](=O)[O-])c1 (centres unmarked) [Cilnidipine, cilnidipine] was tested, and the “SHAQ Standard Disability Index: Change from Baseline, Median” value [1] was −0.125, the “SHAQ Standard Disability Index: Day 12, Mean” value [1] was 0.125 and the “SHAQ Standard Disability Index: Day 12, Median” value [1] was 0.125. For the same compound, the “SHAQ Standard Disability Index: Percent Change from Baseline, Mean” value [1] was −50.00%, the “SHAQ Standard Disability Index: Percent Change from Baseline, Median” value [1] was −50.00% and the “Alternative disability index, improvement” value [2] was 42% improvement. The “Standard disability index, improvement” value [2] was 50% improvement, the “VAS - Breathing problems, improvement” value [2] was 75% improvement* and the “VAS - Raynaud's, improvement” value [2] was 55% improvement. The “VAS Overall Disease Severity, improvement” value [2] was 63% improvement, the “VAS- PAIN, improvement” value (Cilnidipine 20 mg (n = 3), Table R, baseline 2.17 on a 0-10 VAS) was 53% improvement* and the “SHAQ % change VAS Raynauds” value [3] was −49%. The “SHAQ % change in Alternative Disability Index” value [3] was −42%, the “SHAQ % change in Pain” value [3] was −53% and the “SHAQ % change in Standard Disability Index” value [3] was −50%. For the same compound, the “SHAQ % change overall SSc Disease Severity” value [3] was −63%, the “SHAQ % improvement in Breathing (median)” value [3] was 67% and the “SHAQ % improvement in VAS Digital Ulcers” value [3] was 35%. For the same compound, the “SHAQ Visual Analogue Scale - Breathing Problems, Change from Baseline, Mean” value [4] was −0.475, the “SHAQ Visual Analogue Scale - Breathing Problems, Change from Baseline, Median” value [4] was −0.250 and the “SHAQ Visual Analogue Scale - Breathing Problems, Percent Change from Baseline, Mean” value [4] was 3.73%. For the same compound, the “SHAQ Visual Analogue Scale - Breathing Problems, Percent Change from Baseline, Median” value [4] was −17.54%, the “SHAQ Visual Analogue Scale - Finger Ulcers, Change from Baseline, Mean” value [4] was −0.933 and the “SHAQ Visual Analogue Scale - Finger Ulcers, Change from Baseline, Median” value [4] was 0.000. The “SHAQ Visual Analogue Scale - Finger Ulcers, Percent Change from Baseline, Mean” value [4] was 35.29%, the “SHAQ Visual Analogue Scale - Finger Ulcers, Percent Change from Baseline, Median” value [4] was 35.29% and the “SHAQ Visual Analogue Scale - Intestinal Problems, Change from Baseline, Mean” value [4] was 0.150. The “SHAQ Visual Analogue Scale - Intestinal Problems, Change from Baseline, Median” value [4] was 0.150, the “SHAQ Visual Analogue Scale - Intestinal Problems, Percent Change from Baseline, Mean” value [4] was −10.00% and the “SHAQ Visual Analogue Scale - Intestinal Problems, Percent Change from Baseline, Median” value [4] was 30.00%. For the same compound, the “SHAQ Visual Analogue Scale - Overall Disease Severity, Change from Baseline, Mean” value [4] was −2.000, the “SHAQ Visual Analogue Scale - Overall Disease Severity, Change from Baseline, Median” value [4] was −1.700 and the “SHAQ Visual Analogue Scale - Overall Disease Severity, Percent Change from Baseline, Mean” value [4] was −64.20%. The “SHAQ Visual Analogue Scale - Overall Disease Severity, Percent Change from Baseline, Median” value [4] was −64.44%, the “SHAQ Visual Analogue Scale - Pain, Change from Baseline, Mean” value [4] was −0.650 and the “SHAQ Visual Analogue Scale - Pain, Change from Baseline, Median” value [4] was −0.650. For the same compound, the “SHAQ Visual Analogue Scale - Pain, Percent Change from Baseline, Mean” value [4] was −34.56%, the “SHAQ Visual Analogue Scale - Pain, Percent Change from Baseline, Median” value [4] was −51.06% and the “SHAQ Visual Analogue Scale - Raynaud's, Change from Baseline, Mean” value [4] was −1.200. For the same compound, the “SHAQ Visual Analogue Scale - Raynaud's, Change from Baseline, Median” value [4] was −1.050, the “SHAQ Visual Analogue Scale - Raynaud's, Percent Change from Baseline, Mean” value [4] was −41.11% and the “SHAQ Visual Analogue Scale - Raynaud's, Percent Change from Baseline, Median” value [4] was −38.67%. For the same compound, the “SHAQ Alternative Disability Index: Change from Baseline, Mean” value [5] was 0.000, the “SHAQ Alternative Disability Index: Change from Baseline, Median” value [5] was −0.063 and the “SHAQ Alternative Disability Index: In-Clinic Visit (Day 12), Mean” value [5] was 0.219. For the same compound, the “SHAQ Alternative Disability Index: In-Clinic Visit (Day 12), Median” value [5] was 0.188, the “SHAQ Alternative Disability Index: Percent Change from Baseline, Mean” value [5] was 5.56% and the “SHAQ Alternative Disability Index: Percent Change from Baseline, Median” value [5] was −33.33%. For the same compound, the “SHAQ Standard Disability Index: Change from Baseline, Mean” value [5] was −0.063, the “SHAQ Standard Disability Index: Change from Baseline, Median” value [5] was −0.063 and the “SHAQ Standard Disability Index: In-Clinic Visit (Day 12), Mean” value [5] was 0.281. The “SHAQ Standard Disability Index: In-Clinic Visit (Day 12), Median” value [5] was 0.188, the “SHAQ Standard Disability Index: Percent Change from Baseline, Mean” value [5] was −26.67% and the “SHAQ Standard Disability Index: Percent Change from Baseline, Median” value [5] was −33.33%. For the same compound, the “SHAQ Visual Analogue Scale - Pain: Change from Baseline, Mean” value [5] was −0.650, the “SHAQ Visual Analogue Scale - Pain: Change from Baseline, Median” value [5] was −0.650 and the “SHAQ Visual Analogue Scale - Pain: In-Clinic Visit (Day 12), Mean” value [5] was 1.875. For the same compound, the “SHAQ Visual Analogue Scale - Pain: In-Clinic Visit (Day 12), Median” value [5] was 1.400, the “SHAQ Visual Analogue Scale - Pain: Percent Change from Baseline, Mean” value [5] was −34.56% and the “SHAQ Visual Analogue Scale - Pain: Percent Change from Baseline, Median” value [5] was −51.06%. For the same compound, the “SHAQ Visual Analogue Scale - Breathing Problems, In-Clinic Visit (Day 12), Mean” value [6] was 0.850 and the “SHAQ Visual Analogue Scale - Breathing Problems, In-Clinic Visit (Day 12), Median” value [6] was 0.450.

Source: patent US20240358693A1, “METHODS OF TREATING PAIN” (Aisa Pharma, Inc., priority 2023, published 2024)
